Type in all cases: biochemical
For one assay, the target named is T1, ΔPH-Akt2 (Homo sapiens, UniProt P31751).
T1 construct: PCR was performed using the full length Akt2 gene as template; biotin tag (from pS2neo vector); made in house; host or cells: Drosophila S2 cells
In words: Akt kinase assay, GSK3 peptide substrate, Akt2 delta PH. As to conditions: pleckstrin homology domain deleted Akt2, GSK3 peptide substrate.

Another assay has as its target T2, ΔPH-Akt1 (Homo sapiens, UniProt P31749).
T2 construct: PCR deletion mutagenesis was done using the full length Akt1 gene in the pS2neo vector as template; biotin tag (from pS2neo vector); made in house; host or cells: Drosophila S2 cells
In words: Akt kinase assay, GSK3 peptide substrate, Akt1 delta PH. As to conditions: pleckstrin homology domain deleted Akt1, GSK3 peptide substrate.

The target of another assay is T3, Human Akt3 (Homo sapiens, UniProt Q9Y243).
T3 construct: a middle T tag was added to the 5′ end of the full length Akt3 clone; biotin tag (from pS2neo vector); made in house; host or cells: Drosophila S2 cells
T3 sequence (Q9Y243 whole entry): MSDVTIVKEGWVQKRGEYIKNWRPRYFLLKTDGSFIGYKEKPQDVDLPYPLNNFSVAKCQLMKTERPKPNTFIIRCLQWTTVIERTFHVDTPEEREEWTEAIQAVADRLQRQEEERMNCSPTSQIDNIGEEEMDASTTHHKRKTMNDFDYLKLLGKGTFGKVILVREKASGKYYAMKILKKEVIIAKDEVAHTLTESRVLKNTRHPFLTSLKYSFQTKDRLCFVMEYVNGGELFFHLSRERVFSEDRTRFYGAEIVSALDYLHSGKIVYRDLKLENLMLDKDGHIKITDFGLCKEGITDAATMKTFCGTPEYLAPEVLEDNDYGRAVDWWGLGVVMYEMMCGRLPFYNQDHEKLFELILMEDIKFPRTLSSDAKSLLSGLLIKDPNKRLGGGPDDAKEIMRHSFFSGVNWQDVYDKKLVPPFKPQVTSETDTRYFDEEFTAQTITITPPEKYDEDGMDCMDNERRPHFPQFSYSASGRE
In words: Akt kinase assay, GSK3 peptide substrate, Akt3. Conditions: activated full length Akt3, GSK3 peptide substrate. The method, then:
(§1) Akt and Akt pleckstrin homology domain deletions were activated (Alessi et al. Current Biology 7:261-269) in a reaction containing 10 nM PDK1 (Upstate Biotechnology, Inc.), lipid vesicles (10 μM phosphatidylinositol-3,4,5-trisphosphate—Metreya, Inc, 100 μM phosphatidylcholine and 100 μM phosphatidylserine—Avanti Polar lipids, Inc.) and activation buffer (50 mM Tris pH7.4, 1.0 mM DTT, 0.1 mM EGTA, 1.0 μM Microcystin-LR, 0.1 mM ATP, 10 mM MgCl2, 333 μg/ml BSA and 0.1 mM EDTA). The reaction was incubated at 22° C. for 4 hours. Aliquots were flash frozen in liquid nitrogen.
(§2) Activated AKT isoforms and pleckstrin homology domain deletion constructs were assayed utilizing a GSK-derived biotinylated peptide substrate. The extent of peptide phosphorylation was determined by Homogeneous Time Resolved Fluorescence […] using a lanthanide chelate (Lance)-coupled monoclonal antibody specific for the phosphopeptide in combination with a streptavidin-linked allophycocyanin (SA-APC) fluorophore which will bind to the biotin moiety on the peptide. […]
(§3) The reaction is assembled by adding 16 μL of the ATP/MgCl2 working solution to the appropriate wells of a 96-well microtiter plate. […] The stopped reactions were incubated at room temperature for at least 30 min and then read on the Discovery instrument. […]

The next assay concerns PKC. In words: PKC assay (counter screen). Conditions: Myelin basic protein substrate; read-out: Counter screens IC50 (μM) PKC. The procedure:
Each PKC assay consists of the following components:
The assays were assembled in 96 deep-well assay plates. Inhibitor or vehicle (10 μl) was added to 5.0 μl of ^33P-ATP. Reactions were initiated with the addition of the PKC/Myelin Basic Protein working solution and mixing. Reactions were incubated at 30° C. for 20 min. The reactions were stopped by adding 50 μl of 100 mM EDTA and 100 mM sodium pyrophosphate and mixing. Phosphorylated Mylein Basic Protein was collected on PVDF membranes in 96 well filter plates and quantitated by scintillation counting.

In another assay the target is T4, PKA catalytic subunit (Bos taurus, UniProt P00517).
T4 construct: purchased UBI (Upstate Biotechnology, Inc.) 14-114
In words: PKA assay (counter screen). As to conditions: Kemptide substrate; read-out: Counter screens IC50 (μM) PKA. The procedure:
The reactions were stopped by adding 50 μl of 100 mM EDTA and 100 mM sodium pyrophosphate and mixing.
After the final wash, the filters were allowed to air dry.

The target of the next assay is T5, Human Akt1 (Homo sapiens, UniProt P31749).
T5 construct: a middle T tag was added to the 5′ end of the full length Akt1 gene; biotin tag (from pS2neo vector); made in house; host or cells: Drosophila S2 cells
T5 sequence (P31749 whole entry): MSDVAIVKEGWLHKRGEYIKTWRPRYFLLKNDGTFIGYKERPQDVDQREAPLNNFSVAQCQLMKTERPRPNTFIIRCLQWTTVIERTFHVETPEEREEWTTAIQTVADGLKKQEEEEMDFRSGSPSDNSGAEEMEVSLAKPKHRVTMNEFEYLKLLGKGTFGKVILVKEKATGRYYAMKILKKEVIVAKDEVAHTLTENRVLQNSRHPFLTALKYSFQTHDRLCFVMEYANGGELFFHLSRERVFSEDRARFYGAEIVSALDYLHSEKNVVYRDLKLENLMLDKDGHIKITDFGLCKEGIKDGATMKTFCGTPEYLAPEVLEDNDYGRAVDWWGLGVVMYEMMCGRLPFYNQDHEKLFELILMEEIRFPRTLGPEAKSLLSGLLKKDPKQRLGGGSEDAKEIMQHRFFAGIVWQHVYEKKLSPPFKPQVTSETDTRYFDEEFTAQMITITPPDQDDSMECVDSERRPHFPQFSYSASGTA
In words: Akt kinase assay, GSK3 peptide substrate, Akt1. As to conditions: activated full length Akt1, GSK3 peptide substrate. The method, then:
as §1, §2, §3

In the next assay the target is T6, Human Akt2 (Homo sapiens, UniProt P31751).
T6 construct: a middle T tag was added to the 5′ end of the full length Akt2 using the PCR primer; biotin tag (from pS2neo vector); made in house; host or cells: Drosophila S2 cells
T6 sequence (P31751 whole entry): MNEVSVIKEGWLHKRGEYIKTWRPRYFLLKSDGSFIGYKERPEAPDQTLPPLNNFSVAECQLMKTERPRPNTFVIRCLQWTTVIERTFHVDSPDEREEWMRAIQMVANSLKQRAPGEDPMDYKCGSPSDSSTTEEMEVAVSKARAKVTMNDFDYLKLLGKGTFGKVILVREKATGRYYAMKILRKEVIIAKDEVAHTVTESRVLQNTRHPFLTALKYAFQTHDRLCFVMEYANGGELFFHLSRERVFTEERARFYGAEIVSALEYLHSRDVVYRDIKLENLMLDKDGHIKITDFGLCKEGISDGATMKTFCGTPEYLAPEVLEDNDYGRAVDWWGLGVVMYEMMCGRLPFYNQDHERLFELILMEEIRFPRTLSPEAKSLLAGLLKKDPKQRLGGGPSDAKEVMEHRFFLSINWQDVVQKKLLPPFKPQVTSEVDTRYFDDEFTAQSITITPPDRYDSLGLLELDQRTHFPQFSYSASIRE
In words: Akt kinase assay, GSK3 peptide substrate, Akt2. As to conditions: activated full length Akt2, GSK3 peptide substrate. The procedure: as §1, §2, §3

The results in this text go back to patent publication US20060142178A1, “Method of treating cancer” (priority 2002, published 2006).

Each structure is given as a SMILES string.

T2 sequence (P31749 with tags, fused parts or gaps): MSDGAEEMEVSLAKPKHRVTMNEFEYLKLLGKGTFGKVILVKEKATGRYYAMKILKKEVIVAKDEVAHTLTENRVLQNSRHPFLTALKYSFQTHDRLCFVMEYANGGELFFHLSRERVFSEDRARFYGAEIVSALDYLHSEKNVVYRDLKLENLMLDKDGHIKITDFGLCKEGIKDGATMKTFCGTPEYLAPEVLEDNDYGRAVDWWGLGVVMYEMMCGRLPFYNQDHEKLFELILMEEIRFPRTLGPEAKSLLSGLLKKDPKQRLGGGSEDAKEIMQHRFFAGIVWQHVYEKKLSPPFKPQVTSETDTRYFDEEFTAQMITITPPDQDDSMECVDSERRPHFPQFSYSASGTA
T1 sequence (P31751 with tags, fused parts or gaps): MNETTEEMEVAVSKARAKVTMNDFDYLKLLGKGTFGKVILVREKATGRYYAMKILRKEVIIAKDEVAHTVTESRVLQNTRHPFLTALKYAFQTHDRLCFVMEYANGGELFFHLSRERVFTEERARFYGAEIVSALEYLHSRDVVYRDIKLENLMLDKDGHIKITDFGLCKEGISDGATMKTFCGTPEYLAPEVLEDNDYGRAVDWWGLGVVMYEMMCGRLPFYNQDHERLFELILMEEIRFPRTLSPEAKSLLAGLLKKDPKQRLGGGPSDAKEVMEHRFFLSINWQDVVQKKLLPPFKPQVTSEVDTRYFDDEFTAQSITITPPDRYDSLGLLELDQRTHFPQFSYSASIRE

For orientation: IC50 means the concentration that inhibits the measured activity by half. The compound `CN(C)CC(C)(C)CNc1nn2c(-c3ccccc3)nnc2cc1C1CCC1` [Compound 1, N′-(7-Cyclobutyl-3-phenyl-[1,2,4]triazolo[4,3-b]pyridazin-6-yl)-2,2,N,N-tetramethyl-propane-1,3-diamine] registered an IC50 against ΔPH-Akt2 of more than 100 µM.
For `COc1cc(-c2[nH]c(C3CCCN3C)nc2-c2ccncc2)ccc1Cl` (stereo not shown) [Compound 19-11, 1-methyl-2-[5-(4-chloro-3-methoxyphenyl)-4-pyridin-4-yl-1H-imidazol-2-yl]-pyrrolidine], the IC50 against ΔPH-Akt1 was more than 50 µM; at Human Akt3, 1.4 µM; in the assay with PKC it was 0.65 µM; on PKA catalytic subunit, 0.076 µM; on Human Akt1 it was 51.7 µM; on Human Akt2, more than 50 µM.
On to `OCCOc1nn2c(-c3ccccc3)nnc2cc1-c1ccccc1` [Compound 8, 6-(2-Hydroxyethyl)oxy-3,7-diphenyl-[1,2,4]triazolo[4,3-b]pyridazine], for which the IC50 against ΔPH-Akt1, on Human Akt3 and at Human Akt2 was more than 50 µM throughout.
